Assay results from patent US10261017B2, “Methods for detecting and categorizing skin sensitizers” (University of Mississippi, priority 2014, dated 2019).
Structures can show the parent of a compound that is named as a salt. Where two headings read alike, the source gives them in different places.

Assays:
[1] = test system: ARE-dependent gene activity in a recombinant cell line; details: cited from earlier work
thiol peptide [2] = details: cited from earlier work; for Cys-DPRA, percentage of thiol peptide depleted: adopted from the literature
[3] = cited from earlier work; for LLNA EC3: reported results (Table 7); for LLNA (EC3): effective concentration, published literature (Table 1); for LLNA Classification: published literature
[4] = Microplate spectrophotometric method (DCYA assay), fluorescence end-point; details: for DCYA 100-RI: RI = reactivity index, 2 equiv. electrophile, pH 10 buffer; for DCYA binary classification: FN: false negative; for DCYA binary classification: FP: false positive; for DCYA binary classification: TN: true negative; for DCYA binary classification: TP: true positive, positive if 100-RI <95; for DCYA assay reactivity / classification in words: microplate spectrophotometric method
thiol peptide [5] = assay: Cys-DPRA (Direct Peptide Reactivity Assay), literature data; details: for Cys-DPRA binary classification: FN: false negative; for Cys-DPRA binary classification: FP: false positive; for Cys-DPRA binary classification: TN: true negative; for Cys-DPRA binary classification: TP: true positive
[6] = NMR method: depletion of electrophile signal on reaction with DCYA; details: for Conversion at t30 (depletion of electrophile signal): at 30 min; for Conversion at t30 (depletion of electrophile signal) / NMR Method conversion: 1 equiv. DCYA; for NMR Classification: based on depletion of electrophile signal at 30 min; for NMR Method conversion: conversion of test chemical at 90 min, CDCl3; for Conversion rate: 0.1 M DCYA, 0.1 M L-carvone
Excerpt: The described example can be applied to pure chemicals and mixtures. The method includes the acquisition of at least one NMR spectrum, mixing an electrophile and a nucleophile to acquire an array of control spectra and an addition of catalyst to record an array of reaction spectra. It also includes the quantification of at least one signal and the comparison of the signal with a control and the classification of the reaction based on the depletion of potential sensitizer based on the quantified residual signal.
2,5-Dimethylfuran was used as internal standard. When necessary, characterization of the product(s) formed during the reaction(s) was performed by homonuclear ^1H connectivities using 2D-COSY experiments. […] Two- and three bond ^1H-^13C connectivities were determined by gradient-HMBC experiments in which the evolution period for long-range ^1H-^13C coupling constants was optimized for a ^2,3JC,H of 8 Hz. Through-space ^1H connectivities were determined using a NOESY experiment with a mixing time of 0.450 s. […] Toronto, Canada].
In a 3 mm NMR tube, 1 volume of DCYA (100) mM in CDCl3) was mixed with one volume of sensitizer (100 mM in CDCl3) to give a final concentration of 50 mM for both DCYA and the sensitizer. Control ^1H NMR spectra (reference spectra) were recorded at regular intervals of for a minimum of 5 min. […] All spectra were recorded at constant temperature. All experiments were conducted using the manufacturer's standard presaturation pulse programs and experimental conditions were chosen as explained in NMR spectroscopy section. The progress of the reaction was followed by the diminished peak areas of the resonances for the signal of interest. The spectra were phased, referenced, and integrated using NMR data elaboration software. The structural characterizations of the resulting adducts were confirmed by conducting additional 2D-NMR experiments when necessary.
Covalent reaction of DCYA with carvone is dependent on the activation of the nucleophilic group (ex. sulfhydryl group to the reactive thio-anion) under basic conditions. This reaction is strongly dependent on the nature of the nucleophile and may be modulated by careful choice of the model nucleophile and the reaction conditions.
The control spectra are used as reference spectra (FIG. 3A). All the spectra were subjected to automatic phase and baseline correction using a Bernstein polynomial fit (order 3). After these two steps, all the spectra were integrated over the areas of interest. […] Both vinylic and adduct peak areas were normalized relative to the internal standard signal peaks. […] The concentrations of both electrophile and adduct were then plotted as percentage against time (in minutes). (FIG. 5).

[7] = reported results from the literature

| SMILES | DCYA 100-RI [4] | Cys-DPRA binary classification: FN (thiol peptide [5]) | Cys-DPRA binary classification: FP (thiol peptide [5]) | Cys-DPRA binary classification: TN (thiol peptide [5]) | Cys-DPRA binary classification: TP (thiol peptide [5]) | DCYA binary classification: FN [4] | DCYA binary classification: FP [4] | DCYA binary classification: TN [4] | DCYA binary classification: TP [4] | KeratinoSens ™ EC3 ([1]; reported results (Table 7)) | Cys-DPRA % Pept. remain. (thiol peptide [2]; [7]) | LLNA EC3 [3] | LLNA Classification [3] | also measured |
| --- | --- | --- | --- | --- | --- | --- | --- | --- | --- | --- | --- | --- | --- | --- |
| O=C1OC(=O)C2CCCCC12 (stereo not shown) [1,2-Cyclohexanedicarboxylic anhydride] | 104.6 | – | – | – | – | – | – | – | – | >2000 µM | 84.3% | 0.84% | – | – |
| CCC=CC=CC=O [2,4-Heptadienal] | 54.1 | 0 | 0 | 0 | 1 | 0 | 0 | 0 | 1 | 21.91 µM | 2.7% | 4% | – | – |
| Clc1ccccc1 [Chlorobenzene] | 97.8 | 0 | 0 | 1 | 0 | 0 | 0 | 1 | 0 | – | – | – | – | KeratinoSens ™ EC3 [1]: >2000 µM; Cys-DPRA % Pept. remain. (thiol peptide [2]): 99.6% |
| OCC=Cc1ccccc1 [Cinnamyl alcohol] | 105.0 | – | – | – | – | – | – | – | – | >2000 µM | 100% | 21% | – | – |
| CCOC(=O)/C=C\C(=O)OCC [Diethyl maleate] | −8.84 | 0 | 0 | 0 | 1 | 0 | 0 | 0 | 1 | 82.85 µM | 0% | 5.8% | – | – |
| C=CC(=O)OCC [Ethyl acrylate] | −0.7 | 0 | 0 | 0 | 1 | 0 | 0 | 0 | 1 | 231.19 µM | 3.6% | 28% | Weak | KeratinoSens ™ EC3 ([1]; published literature (Table 1)): 231.19 µM; Conversion at t30 (depletion of electrophile signal) [6]: 92%; NMR Classification [6]: Strong; NMR Method conversion ([6]; 0.1 equiv. DBN): 93%; Cys-DPRA, percentage of thiol peptide depleted (thiol peptide [2]): 96.4%; LLNA (EC3) [3]: 28% |
| CC(C=O)Cc1ccc(C(C)(C)C)cc1 (stereo not shown) [Lilial] | – | 0 | 1 | 0 | 0 | 1 | 0 | 0 | 0 | >2000 µM | 86% | – | – | DCYA assay reactivity / classification in words [4]: non-reactive |
| C=C(C)C1CC=C(C=O)CC1 (stereo not shown) [Perillaldehyde] | 95.8 | 0 | 0 | 0 | 1 | 1 | 0 | 0 | 0 | 61.85 µM | 68.1% | 8.1% | Moderate | KeratinoSens ™ EC3 ([1]; published literature (Table 1)): 61.85 µM; NMR assay reactivity / classification in words [6]: moderate/low electrophilic behavior; Conversion at t30 (depletion of electrophile signal) [6]: 28%; NMR Classification [6]: Weak-moderate; NMR Method conversion ([6]; 0.1 equiv. DBN): 28%; Cys-DPRA, percentage of thiol peptide depleted (thiol peptide [2]): 31.9%; LLNA (EC3) [3]: 8.1% |

The next lines start with results.

| DCYA 100-RI [4] | Cys-DPRA binary classification: FN (thiol peptide [5]) | Cys-DPRA binary classification: FP (thiol peptide [5]) | Cys-DPRA binary classification: TN (thiol peptide [5]) | Cys-DPRA binary classification: TP (thiol peptide [5]) | DCYA binary classification: FN [4] | DCYA binary classification: FP [4] | DCYA binary classification: TN [4] | DCYA binary classification: TP [4] | SMILES | KeratinoSens ™ EC3 ([1]; reported results (Table 7)) | Cys-DPRA % Pept. remain. (thiol peptide [2]; [7]) | LLNA EC3 [3] | LLNA Classification [3] | also measured |
| --- | --- | --- | --- | --- | --- | --- | --- | --- | --- | --- | --- | --- | --- | --- |
| 96.3 | 0 | 0 | 0 | 1 | 1 | 0 | 0 | 0 | O=c1c(-c2ccccc2)c1-c1ccccc1 [Diphenyl cyclopropenone] | 1.84 µM | 1.2% | 0.003% | – | – |
| 88.4 | 0 | 0 | 0 | – | 0 | 0 | 0 | 1 | C=C(C)[C@@H]1CC=C(C)C(=O)C1 [L-Carvone] | – | – | 13% | Moderate | KeratinoSens ™ EC3 ([1]; published literature (Table 1)): 258.71^20 μM; Depletion ([6]; 0.05 equivalents DBN, chloroform): 23%; Depletion ([6]; 0.1 equivalents DBN, chloroform): 35%; Depletion ([6]; 0.2 equivalents DBN, chloroform): 28%; Conversion rate ([6]; DMSO, 0.1 equiv. DBN): 42%; Conversion rate ([6]; acetonitrile, 0.1 equiv. DBN): 47%; Reaction between DCYA and carvone ([6]; aqueous pH 10 buffer (5% v/v) in acetonitrile, after 90 minutes): 42%; Conversion at t30 (depletion of electrophile signal) [6]: 16%; NMR Classification [6]: Weak; NMR Method conversion ([6]; 0.1 equiv. DBN): 16%; Electrophile depletion ([6]; excess of DCYA, chloroform, 0.1 equiv. DBN): around 37%; Depletion ([6]; excess of electrophile, 2 equiv., chloroform, 0.1 equiv. DBN): 21%; Depletion ([6]; excess of electrophile, 4 equiv., chloroform, 0.1 equiv. DBN): 8%; Cys-DPRA, percentage of thiol peptide depleted (thiol peptide [2]): 26.3^20% |
| 106.4 | 0 | 0 | 1 | 0 | 0 | 0 | 1 | 0 | COc1cc(C=O)ccc1O [Vanillin] | >2000 µM | 96.8% | – | – | – |
| 107.3 | 0 | 0 | 0 | 1 | 1 | 0 | 0 | 0 | CC/C=C\CCCCC=O [cis-6-Nonenal] | 687.67 µM | 92% | – | – | – |
| 127.1 | – | – | – | – | – | – | – | – | Oc1ccc(O)cc1 [p-Hydroquinone] | 51.29 µM | 16.7% | 0.11% | Strong | KeratinoSens ™ EC3 ([1]; published literature (Table 1)): 51.29 µM; NMR assay reactivity / classification in words [6]: almost unreactive; Conversion at t30 (depletion of electrophile signal) [6]: 5%; NMR Classification [6]: Non^$; NMR Method conversion ([6]; 0.1 equiv. DBN): 5%; Cys-DPRA, percentage of thiol peptide depleted (thiol peptide [2]): 83.3%; Cys-DPRA reactivity in words (thiol peptide [2]; literature): non-reactive; LLNA (EC3) [3]: 0.11%; DCYA assay reactivity / classification in words [4]: non-reactive |
| 29.9 | 0 | 0 | 0 | 1 | 0 | 0 | 0 | 1 | CCC/C=C/C=O [trans-2-Hexenal] | 374.57 µM | 2.1% | 5.5% | moderate sensitizer | – |
